{"source": "ChEMBL document CHEMBL1201862", "about": "“PubChem BioAssay data set” (2004)", "key": {"[1]": {"target": "Lysosomal acid glucosylceramidase (Homo sapiens, UniProt P04062)", "sequence (P04062 whole entry)": "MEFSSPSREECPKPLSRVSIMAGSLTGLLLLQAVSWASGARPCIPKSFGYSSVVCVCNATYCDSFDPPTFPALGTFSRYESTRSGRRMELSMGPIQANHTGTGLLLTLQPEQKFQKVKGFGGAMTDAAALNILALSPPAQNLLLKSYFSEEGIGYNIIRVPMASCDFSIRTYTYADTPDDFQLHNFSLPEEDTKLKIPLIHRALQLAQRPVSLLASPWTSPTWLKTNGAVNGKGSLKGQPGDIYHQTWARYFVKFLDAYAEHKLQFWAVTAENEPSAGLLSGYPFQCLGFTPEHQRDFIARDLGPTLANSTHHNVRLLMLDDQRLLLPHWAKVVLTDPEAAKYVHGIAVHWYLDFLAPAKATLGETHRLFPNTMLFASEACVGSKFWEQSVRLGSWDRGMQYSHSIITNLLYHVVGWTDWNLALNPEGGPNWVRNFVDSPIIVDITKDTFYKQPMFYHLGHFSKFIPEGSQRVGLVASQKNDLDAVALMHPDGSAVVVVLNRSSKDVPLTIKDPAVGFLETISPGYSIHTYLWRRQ", "experiment": "Dose response cell-based high throughput screening assay to identify enhancers of beta-glucosidase activity. [Related pubchem assays: 784 ]", "type": "functional"}, "[2]": {"target": "T1, Eukaryotic translation initiation factor 2-alpha kinase 3 (Homo sapiens, UniProt Q9NZJ5)", "T1 sequence (Q9NZJ5 whole entry)": "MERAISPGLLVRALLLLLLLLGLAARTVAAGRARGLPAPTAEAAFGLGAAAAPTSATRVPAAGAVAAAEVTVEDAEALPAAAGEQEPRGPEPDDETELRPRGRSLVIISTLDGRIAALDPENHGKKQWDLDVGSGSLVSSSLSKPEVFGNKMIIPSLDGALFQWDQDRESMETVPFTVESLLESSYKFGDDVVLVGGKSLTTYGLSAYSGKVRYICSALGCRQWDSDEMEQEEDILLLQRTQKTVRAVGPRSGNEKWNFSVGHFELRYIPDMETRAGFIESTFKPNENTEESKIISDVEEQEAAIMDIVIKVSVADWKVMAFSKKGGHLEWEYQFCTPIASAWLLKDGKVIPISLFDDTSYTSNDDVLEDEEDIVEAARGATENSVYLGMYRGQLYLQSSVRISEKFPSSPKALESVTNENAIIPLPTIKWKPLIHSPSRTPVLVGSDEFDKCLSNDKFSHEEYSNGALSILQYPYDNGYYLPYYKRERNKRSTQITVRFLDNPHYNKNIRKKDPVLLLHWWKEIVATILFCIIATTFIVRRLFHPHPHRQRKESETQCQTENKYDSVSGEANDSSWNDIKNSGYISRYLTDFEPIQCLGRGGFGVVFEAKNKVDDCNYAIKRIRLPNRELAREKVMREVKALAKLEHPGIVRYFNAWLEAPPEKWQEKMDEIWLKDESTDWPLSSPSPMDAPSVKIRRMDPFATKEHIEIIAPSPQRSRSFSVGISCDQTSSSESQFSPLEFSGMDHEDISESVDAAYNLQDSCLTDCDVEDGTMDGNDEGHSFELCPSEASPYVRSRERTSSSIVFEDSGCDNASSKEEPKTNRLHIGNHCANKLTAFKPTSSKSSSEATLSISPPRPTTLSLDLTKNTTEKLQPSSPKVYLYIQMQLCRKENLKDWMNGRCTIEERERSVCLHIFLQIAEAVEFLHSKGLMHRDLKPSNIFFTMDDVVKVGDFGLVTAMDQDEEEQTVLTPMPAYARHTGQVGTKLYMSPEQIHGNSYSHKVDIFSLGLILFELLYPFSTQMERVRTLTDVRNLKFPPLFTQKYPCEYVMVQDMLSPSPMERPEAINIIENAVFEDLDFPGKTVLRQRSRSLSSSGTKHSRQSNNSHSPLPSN", "experiment": "Dose response cell-based high-throughput screening assay to measure PERK inhibition. [Related pubchem assays: 1416 ]", "type": "functional"}, "[3]": {"target": "T1, Eukaryotic translation initiation factor 2-alpha kinase 3", "experiment": "Counterscreen assay for PERK inhibitors: Dose response cell-based high throughput screening assay to measure inhibition of PERK at 6 hours. [Related pubchem assays: 1522, 1416 ]", "type": "functional"}, "[4]": {"target": "T2, Neuropeptide Y receptor type 1 (Homo sapiens, UniProt P25929)", "T2 sequence (P25929 whole entry)": "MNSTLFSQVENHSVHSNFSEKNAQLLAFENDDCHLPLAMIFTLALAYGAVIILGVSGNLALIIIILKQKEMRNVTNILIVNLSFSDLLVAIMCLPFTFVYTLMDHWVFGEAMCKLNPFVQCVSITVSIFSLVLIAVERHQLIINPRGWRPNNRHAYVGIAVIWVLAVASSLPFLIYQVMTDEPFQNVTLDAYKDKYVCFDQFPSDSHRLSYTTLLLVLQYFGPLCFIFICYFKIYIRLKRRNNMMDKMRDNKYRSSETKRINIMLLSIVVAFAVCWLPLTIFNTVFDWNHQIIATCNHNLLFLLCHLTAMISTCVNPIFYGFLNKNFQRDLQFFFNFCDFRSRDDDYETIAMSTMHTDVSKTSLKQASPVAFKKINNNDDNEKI", "type": "functional"}, "[5]": {"target": "T3, Neuropeptide Y receptor type 2 (Homo sapiens, UniProt P49146)", "T3 sequence (P49146 whole entry)": "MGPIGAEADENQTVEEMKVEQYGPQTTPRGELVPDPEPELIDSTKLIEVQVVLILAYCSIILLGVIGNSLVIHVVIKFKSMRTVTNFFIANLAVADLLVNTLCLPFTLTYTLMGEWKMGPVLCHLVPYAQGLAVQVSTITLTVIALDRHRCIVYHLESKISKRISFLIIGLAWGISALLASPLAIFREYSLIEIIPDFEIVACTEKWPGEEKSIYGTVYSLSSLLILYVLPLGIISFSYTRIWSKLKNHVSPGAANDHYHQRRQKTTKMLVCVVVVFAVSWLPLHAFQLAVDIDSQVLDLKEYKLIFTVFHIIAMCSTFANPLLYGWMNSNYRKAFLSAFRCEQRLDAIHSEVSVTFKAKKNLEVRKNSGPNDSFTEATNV", "type": "functional, cell-based"}, "[6]": {"experiment": "viability of PTEN-deleted HCT116 cells – cell-based, HCT116 PTEN knockout, dose response (AID 1047);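 also: HCT116 colon tumor cells with PTEN knocked out; cells exposed to compound for 60 hours before readout; potency for loss of cell viability measured by luminescence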", "type": "functional"}, "[7]": {"experiment": "viability of HCT116 lacking mutant beta-catenin – cell-based, human colon tumor, dose response (AID 1045);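 also: HCT116 colon tumor cells with beta catenin knocked out; cells exposed to compound for 60 hours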", "type": "functional"}, "[8]": {"experiment": "viability of uninfected HEp-2 cells – cell-based, HTS, cytotoxicity control for RSV inhibitor project, dose response (AID 2410)", "type": "functional", "settings": "human respiratory syncytial virus"}, "[9]": {"target": "5-hydroxytryptamine receptor 1E (Homo sapiens, UniProt P28566)", "sequence (P28566 whole entry)": "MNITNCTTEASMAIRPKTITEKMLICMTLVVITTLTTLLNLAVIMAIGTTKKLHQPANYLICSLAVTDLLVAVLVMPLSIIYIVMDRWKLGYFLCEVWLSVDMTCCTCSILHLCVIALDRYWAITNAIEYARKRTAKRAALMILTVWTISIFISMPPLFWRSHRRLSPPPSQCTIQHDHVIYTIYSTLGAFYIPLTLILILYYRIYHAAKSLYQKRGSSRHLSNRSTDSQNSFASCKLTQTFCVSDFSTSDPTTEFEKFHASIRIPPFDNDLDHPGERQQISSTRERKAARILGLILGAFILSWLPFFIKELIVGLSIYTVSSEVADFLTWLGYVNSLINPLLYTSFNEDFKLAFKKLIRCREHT", "experiment": "Counterscreen assay for S1P3 antagonists: Dose response cell-based high throughput screening assay to identify antagonists of the 5-Hydroxytryptamine Receptor Subtype 1E (5HT1E). [Related pubchem assays: 1429, 485 ]", "type": "functional"}, "[10]": {"experiment": "Trypanosoma cruzi growth suppression in host cells – NIH3T3 host cells, beta-gal luminescence, confirmation (AID 2044);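 also: intracellular parasites grown in NIH/3T3 mouse fibroblasts as host cells; luminescent beta-galactosidase reporter signal from transgenic T. cruzi replicating inside host cells; inhibitors lower the luminescence signal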", "type": "functional, cell-based"}, "[11]": {"experiment": "NIH3T3 cell viability loss – ATP luminescence, mouse fibroblasts, counter-screen, dose response (AID 2010);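 also: cells exposed to compound for about 90 hours before reading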", "type": "functional, cell-based"}, "[12]": {"target": "Sphingosine 1-phosphate receptor 3 (Homo sapiens, UniProt Q99500)", "sequence (Q99500 whole entry)": "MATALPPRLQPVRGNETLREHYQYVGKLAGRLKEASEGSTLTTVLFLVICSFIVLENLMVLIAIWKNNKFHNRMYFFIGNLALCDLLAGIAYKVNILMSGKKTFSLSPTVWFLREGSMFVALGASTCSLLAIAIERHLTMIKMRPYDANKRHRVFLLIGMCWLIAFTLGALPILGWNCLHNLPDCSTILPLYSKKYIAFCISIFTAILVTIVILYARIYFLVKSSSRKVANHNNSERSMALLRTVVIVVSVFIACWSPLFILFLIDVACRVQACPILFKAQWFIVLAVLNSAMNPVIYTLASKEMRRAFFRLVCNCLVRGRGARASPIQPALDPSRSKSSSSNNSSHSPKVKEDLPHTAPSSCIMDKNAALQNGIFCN", "experiment": "Dose response cell-based high throughput screening assay for antagonists of the Sphingosine 1-Phosphate Receptor 3 (S1P3). [Related pubchem assays: 1429, 485 ]", "type": "functional"}, "[13]": {"target": "Photoreceptor-specific nuclear receptor (Homo sapiens, UniProt Q9Y5X4)", "sequence (Q9Y5X4 whole entry)": "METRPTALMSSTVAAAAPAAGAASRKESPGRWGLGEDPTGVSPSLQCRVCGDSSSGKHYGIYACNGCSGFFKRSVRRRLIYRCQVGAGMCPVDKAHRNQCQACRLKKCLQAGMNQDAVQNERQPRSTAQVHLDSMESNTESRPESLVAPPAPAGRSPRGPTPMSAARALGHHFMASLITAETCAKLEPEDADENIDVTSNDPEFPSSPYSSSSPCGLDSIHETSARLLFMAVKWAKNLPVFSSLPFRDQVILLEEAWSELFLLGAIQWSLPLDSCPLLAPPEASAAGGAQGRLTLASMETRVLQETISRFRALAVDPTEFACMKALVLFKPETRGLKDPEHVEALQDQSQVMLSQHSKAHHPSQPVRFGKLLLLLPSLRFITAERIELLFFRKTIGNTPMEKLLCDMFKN", "type": "functional"}, "[14]": {"target": "Peroxisome proliferator-activated receptor gamma/Nuclear receptor corepressor 2 (Homo sapiens, UniProt P37231+Q9Y618)", "type": "functional"}, "[15]": {"target": "T4, Heat shock 70 kDa protein 1A (Homo sapiens, UniProt P0DMV8)", "T4 sequence (P0DMV8 whole entry)": "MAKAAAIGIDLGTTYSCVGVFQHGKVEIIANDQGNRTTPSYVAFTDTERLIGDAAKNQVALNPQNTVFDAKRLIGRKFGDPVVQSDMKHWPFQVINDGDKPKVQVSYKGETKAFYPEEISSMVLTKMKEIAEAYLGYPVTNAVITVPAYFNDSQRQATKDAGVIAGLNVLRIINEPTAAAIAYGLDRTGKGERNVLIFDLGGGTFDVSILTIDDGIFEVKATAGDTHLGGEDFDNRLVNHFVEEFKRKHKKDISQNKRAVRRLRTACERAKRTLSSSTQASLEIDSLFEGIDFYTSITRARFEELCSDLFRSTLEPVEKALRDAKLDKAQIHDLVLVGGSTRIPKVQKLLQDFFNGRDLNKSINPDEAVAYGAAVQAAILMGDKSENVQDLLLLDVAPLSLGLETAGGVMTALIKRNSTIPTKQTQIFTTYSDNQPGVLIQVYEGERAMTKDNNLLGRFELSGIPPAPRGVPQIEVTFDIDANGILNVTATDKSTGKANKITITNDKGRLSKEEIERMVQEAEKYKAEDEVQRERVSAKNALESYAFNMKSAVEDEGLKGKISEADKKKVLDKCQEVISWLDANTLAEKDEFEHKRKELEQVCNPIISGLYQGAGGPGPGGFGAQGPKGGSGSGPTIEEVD", "experiment": "small-molecule inhibition of Hsp70 – biochemical, TR-FRET (AID 786)"}, "[16]": {"target": "T4, Heat shock 70 kDa protein 1A", "experiment": "small molecules displacing fluorescent ligand from Hsp70 – biochemical, fluorescence polarization, primary screen (AID 583)"}, "[17]": {"experiment": "Luminescence-based counterscreen assay for KLF5 inhibitors: dose response cell-based high throughput screening assay to identify cytotoxic compounds using the IEC-6 intestinal epithelial cell line. [Related pubchem assays: 1700 (Primary screen.), 1834 (Confirmation screen.), 1858 (Summary AID.), 1905 (Counterscreen.)]", "type": "functional"}, "[18]": {"experiment": "HEK-293T viability loss after treatment – luminescence, T-cell screen hits, cytotoxicity control for TCR NF-kB inhibitor project, dose response (AID 489026);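 also: cells exposed to compound about 14 hours before the viability readout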", "type": "functional, cell-based"}, "[19]": {"experiment": "reduction of Shn3 3'UTR-driven luciferase in osteoblasts – cell-based, Clone20 osteoblasts, firefly luciferase, cherry-picked, dose response (AID 624132)", "type": "functional"}, "[20]": {"experiment": "blockers of HIV-1 envelope-mediated cell-cell fusion – cherry-pick, dose response (AID 652057)", "type": "functional, cell-based"}, "[21]": {"experiment": "off-target signal loss in HeLa-CEM21 co-culture – HeLa F-luc CTL cells, cherry-picked, counter-screen for HIV-1 Env fusion inhibitor project, dose response (AID 652040);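 also: potency for signal decrease marking cytotoxic or nonspecific inhibition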", "type": "functional, cell-based"}, "[22]": {"experiment": "HIV-1 AD8 envelope cell-cell fusion blockers – cherry-pick, dose response (AID 652062);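 also: potency is for inhibitors of fusion seen as a drop in luminescence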", "type": "functional, cell-based"}, "[23]": {"experiment": "Shn3 3'UTR reporter signal decrease – cell-based, Clone20 osteoblasts, firefly luciferase, cherry-pick, set 2, Schnurri-3 inhibitor project, dose response (AID 720490)", "type": "functional"}, "[24]": {"experiment": "toxicity toward HepG2 liver cells – cell-based, plate reader, cherry-pick, antagonist series, cytotoxicity control, dose response (AID 743416)", "type": "functional"}, "[25]": {"experiment": "blockers of bursicon-stimulated LGR2 cAMP reporter – cell-based, HEK293, CRE-luciferase reporter, cherry pick, set 2, dose response (AID 743343);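 also: transfected cells were stimulated with diluted bursicon conditioned medium after compound addition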", "type": "functional"}, "[26]": {"experiment": "blockade of melanocortin 4 receptor signaling – cell-based, plate reader, cherry pick, counter-screen for LGR2 antagonist project, dose response (AID 743444);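 also: transfected HEK 293 cells stimulated with alpha-MSH peptide; potency of inhibitors of the alpha-MSH evoked signal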", "type": "functional"}}, "note": "Active and inactive are the calls of the source.", "data": [{"compound": "Cc1cc(C)nc(Sc2nc(C)nc3c2oc2ccccc23)n1", "values": [{"measurement": "EC50", "setting": "[1]", "result": "> 50 µM (not active)"}]}, {"compound": "COc1ccccc1NC(=O)CSc1nnc(CCC(=O)Nc2ccccc2F)n1C", "values": [{"measurement": "EC50", "setting": "[2]", "result": "> 55.7 µM (not active)"}, {"measurement": "EC50", "setting": "[3]", "result": "> 55.7 µM (not active)"}]}, {"compound": "Cc1cccc(N=C(S)N(CCN(C)C)Cc2cc3cc(C)cc(C)c3nc2O)c1", "values": [{"measurement": "IC50", "setting": "[4]", "result": "6.32 µM (active)"}, {"measurement": "IC50", "setting": "[5]", "result": "14.3 µM (not active)"}, {"measurement": "EC50", "setting": "[6]", "result": "33.6 µM (active)"}, {"measurement": "EC50", "setting": "[7]", "result": "18.1 µM (active)"}]}, {"compound": "CC1C(c2ccccc2)N(C)C(c2ccccc2)CC1(O)c1ccc(F)cc1", "note": "(stereo unspecified)", "values": [{"measurement": "CC50", "setting": "[8]", "result": "19.4 µM (active)"}, {"measurement": "IC50", "setting": "[9]", "result": "> 50 µM (not active)"}, {"measurement": "EC50", "setting": "[10]", "result": "2.78 µM (active)"}, {"measurement": "EC50", "setting": "[11]", "result": "> 60 µM (not active)"}, {"measurement": "IC50", "setting": "[12]", "result": "> 50 µM (not active)"}]}, {"compound": "COC(=O)CCCCC1SCC2NC(=O)NC21O", "note": "(stereo unspecified)", "values": [{"measurement": "IC50", "setting": "[13]", "result": "0.139 µM (active)"}, {"measurement": "IC50", "setting": "[14]", "result": "0.577 µM (active)"}]}, {"compound": "Nc1nc2n(n1)C(c1ccco1)CC(c1ccc(Cl)cc1Cl)N2", "note": "(stereo unspecified)", "values": [{"measurement": "IC50", "setting": "[15]", "result": "> 100 µM (not active)"}, {"measurement": "IC50", "setting": "[16]", "result": "> 100 µM (not active)"}]}, {"compound": "O=C(NCCc1ccccc1)c1ccc2c(c1)OCCO2", "values": [{"measurement": "IC50", "setting": "[17]", "result": "> 39.8 µM (not active)"}, {"measurement": "IC50", "setting": "[18]", "result": "> 80 µM (inactive)"}, {"measurement": "AC50", "setting": "[19]", "result": "2.16 µM (active)"}, {"measurement": "AC50", "setting": "[20]", "result": "2.05 µM (active)"}, {"measurement": "AC50", "setting": "[21]", "result": "4.51 µM (active)"}, {"measurement": "AC50", "setting": "[22]", "result": "3.07 µM (active)"}, {"measurement": "AC50", "setting": "[23]", "result": "2.31 µM (active)"}, {"measurement": "AC50", "setting": "[24]", "result": "> 52 µM (inactive)"}, {"measurement": "AC50", "setting": "[25]", "result": "0.801 µM (active)"}, {"measurement": "AC50", "setting": "[26]", "result": "0.885 µM (active)"}]}]}
